# Legend:
# [1] = system: EAAT2; test: EAAT2 protein levels in PA-EAAT2 cells by Western blot; assay type: cell-based, human
# Description: All of the derivates of 1 were initially evaluated in PA-EAAT2 cells^3 (a primary astrocyte line stably expressing EAAT2 mRNAs) following compound (10 μM) incubation for 4 and 24 h before harvesting and measuring EAAT2 levels by Western blot analysis. The fold increases in EAAT2 protein levels relative to DMSO controls are reported (Tables 1-4).
# (§1) Characterization and efficacy studies of a compound, Compound 212320 (FIG. 6A) is shown. […] In the absence of serum, PA-EAAT2 cells express low amounts of EAAT2 protein, although the recombinant EAAT2 mRNA are expressed (translational silencing); however, EAAT2 protein levels are increased when an activator is added to the culture (translational activation). This cell line was used for high-throughput screening to identify EAAT2 translational activators. To prioritize candidate compounds, we initially evaluated activation of EAAT2 protein in PA-EAAT2 cells. Promising compounds were further evaluated in primary dissociated neuron and astrocyte mixed cultures and then in mice. FIG. 6 presents the characterization of Compound 212320 in PA-EAAT2 cells. Compound 212320 increased EAAT2 protein levels in a dose—(FIG. 6B) and time—(FIG. 6C) dependent manner. Importantly, the induction occurred in a short amount of time (within 1-2 hr) and was sustained even up to 72 hr (data not show). Additionally, induction occurred at low nanomolar concentrations. […] (FIG. 6D).
# [2] = system: EAAT2 mRNA; test: Quantitative real-time RT-PCR of EAAT2 mRNA in PA-EAAT2 cells; assay type: cell-based, human; settings: PA-EAAT2 cells (FIG. 6F)
# Description: as §1
# [3] = system: male FVB mice, pilocarpine-induced SE; test: Epilepsy model (pilocarpine-induced status epilepticus mouse model); assay type: in vivo
# Description: Eight- to ten-week-old male FVB mice (22-32 g) received the 1st and 2nd injections of Compound 212320 (at 40 mg/kg in the formulation described above) at 20 and 3 hr prior to induction of seizure with pilocarpine (290 mg/kg, i.p., Sigma). To reduce peripheral cholinergic effects without interfering with the development of SE and chronic seizures, mice received (−) scopolamine methyl nitrate (1.5 mg/kg, Sigma, St. Louis, Mo.) 30 min prior to pilocarpine injection. Control animals were injected with scopolamine followed by saline, instead of pilocarpine. Mice were then observed for 2 hr to record acute seizure severity and latency period. The Racine scale (see Racine, R. J. Modification of seizure activity by electrical stimulation. II. Motor seizure. Electroencephalogr Clin Neurophysiol 32, 281-294 (1972)) was used to rate seizure severity as previously described in Kong, Q., et al. Increased glial glutamate transporter EAAT2 expression reduces epileptogenic processes following pilocarpine-induced status epilepticus. Neurobiol Dis (2012)).
# Mice that reached SE and maintained tonic limbic extension for at least 60 min were kept and treated with compound daily for chronic seizure and pathological studies. The SE mice were fed with food soaked in a high sucrose (10%) saline solution to help recovery in the first 3 days after SE. Vehicle-treated SE mice and compound-treated SE littermates were carefully matched based on the body weight, seizure latency, seizure severity, and post-SE sickness.
# Chronic seizure activities were recorded by webcam (Logitech, Fremont, Calif.) and reviewed using Windows Live Movie Maker. Daylight periods (9 AM-5 PM) were selected for observations because previous literature indicates a higher frequency of spontaneous recurrent seizures during the day (see Kong, Q., et al. Increased glial glutamate transporter EAAT2 expression reduces epileptogenic processes following pilocarpine-induced status epilepticus. Neurobiol Dis (2012); and Shapiro, L. A., Figueroa-Aragon, S. & Ribak, C. E. Newly generated granule cells show rapid neuroplastic changes in the adult rat dentate gyrus during the first five days following pilocarpine-induced seizures. Eur J Neurosci 26, 583-592 (2007)). At 8 weeks post-SE, brain tissue was harvested from SE mice for cresyl violet staining
# Referring to FIG. 3, Compound 212320 reduced mortality rate, spontaneous recurrent seizure and neuronal death following pilocarpine-induced SE. Adult male FVB mice received Compound 212320 (i.p., 40 mg/kg), 3-hr later, were induced seizures with pilocarpine and were then observed for 2 hr to record acute seizure severity and latency period. The Racine scale was used to rate the seizure severity (described above). Mice that reached SE were treated with compound daily and at 4-week post-SE, were recorded chronic seizures for 2 weeks. A total of 15 independent experiments were performed, with a total of 153 vehicle-treated mice and 152 compound 7-4-treated mice. […] FIGS. 3(D-F) show spontaneous recurrent seizure. […] FIGS. 3(G-H) show hippocampal damage.
# [4] = system: EAAT2; test: EAAT2 protein levels and glutamate uptake in forebrain plasma membrane vesicles after i.p. administration; assay type: in vivo, mouse; settings: for EAAT2 protein levels increase / Glutamate uptake increase: single i.p. 40 mg/kg
# Description: We next examined EAAT2 protein levels and glutamate uptake activities in brain following i.p. administration of Compound 212320 in C57BL/6 mice. Plasma membrane vesicles were prepared from mouse forebrains to measure functional EAAT2 protein. After a single i.p. dose of Compound 212320 at 40 mg/kg, EAAT2 protein levels and associated glutamate uptake increased to ˜1.5-2-fold at 2 hr and to ˜2-3-fold from 8 hr to 24 hr post-injection (FIG. 8B). Even at 72 hr, a ˜1.5 fold increase in EAAT2 protein levels could still be detected (data not shown). In addition, Compound 212320-induced EAAT2 protein levels and glutamate uptake were both dose-dependent (FIG. 8C). This induction was not due to transcriptional activation because EAAT2 mRNA was not increased as measured by quantitative real-time RT-PCR (FIG. 8D). We compared ceftriaxone (200 mg/kg), which increases EAAT2 expression through transcriptional activation, with Compound 212320 (40 mg/kg) that activates EAAT2 translation.
# [5] = system: primary dissociated neuron and astrocyte mixed cultures; test: Glutamate-induced excitotoxicity in primary neuron and astrocyte mixed cultures (LDH assay, MAP2 immunostaining); assay type: cell-based; settings: for MAP2-positive neurons left compared to the control: 0.1 mM glutamate
# [6] = from 8 hr to 24 hr post-injection
smiles,measurement,setting,value
Cc1ccccc1CSc1ccc(-c2ccccn2)nn1 [Compound 7-4],Concentrations at which EAAT2 induction occurred,[1]; PA-EAAT2 cells,low nanomolar
same,Time in which EAAT2 induction occurred,[1]; PA-EAAT2 cells,1 to 2 h
same,Time up to which EAAT2 induction was sustained,"[1]; PA-EAAT2 cells, data not shown",up to 72 hr
same,EAAT2 protein levels,"[1]; PA-EAAT2 cells, dose- and time-dependent manner (FIG. 6B, 6C)",increased
same,"Fold increase for EAAT2, 4 h","[1]; compound 10 μM, 4 h incubation, PA-EAAT2 cells, relative to DMSO controls, na = not active",1.7 ± 0.1 fold
same,"Fold increase for EAAT2, 24 h","[1]; compound 10 μM, 24 h incubation, PA-EAAT2 cells, relative to DMSO controls, na = not active",3.5 ± 0.3 fold
same,"SAR comparison of activity on EAAT2 protein levels, in words","[1]; relative to parent/comparator analogue, Tables 1-4",increased potency
same,EAAT2 mRNA levels,[2],not changed
same,"Hippocampal damage (hilar neuronal loss, cresyl violet)",[3]; 8 weeks post-SE,significantly attenuated
same,Chronic seizure frequency (stage V spontaneous recurrent seizures),"[3]; daily treatment, recorded from 4-week post-SE for 2 weeks",significantly reduced
same,Mortality rate vs vehicle,[3]; day 7 post-SE,significantly decreased
same,Mortality rate vs vehicle,[3]; day 60 post-SE,significantly decreased
same,Latency to indicated seizure stage vs vehicle,"[3]; i.p., 40 mg/kg",not significantly different
same,Acute seizure severity (percentage of mice reaching each seizure stage) vs vehicle,"[3]; i.p., 40 mg/kg, within 2-hr after pilocarpine",not significantly different
same,Mortality rate vs vehicle,[3]; on the day that SE was induced,no obvious difference
same,EAAT2 induction compared with ceftriaxone,"[4]; 40 mg/kg vs ceftriaxone 200 mg/kg, a single dose after 24 hr",greater EAAT2 induction than ceftriaxone
same,"Induced EAAT2 protein levels, dose dependence",[4]; FIG. 8C,dose-dependent
same,"Induced glutamate uptake, dose dependence",[4]; FIG. 8C,dose-dependent
same,EAAT2 protein levels increase,[4]; 2 hr post-injection,1.5-2 fold
same,Glutamate uptake increase,[4]; 2 hr post-injection,1.5-2 fold
same,EAAT2 protein levels increase,"[4]; 72 hr, data not shown",~1.5 fold
same,EAAT2 protein levels increase,[4]; [6],2-3 fold
same,Glutamate uptake increase,[4]; [6],2-3 fold
same,Neuronal loss and degeneration (MAP2 immunostaining),[5]; FIG. 7D,significantly prevented
same,Toxicity in all assays,[5]; cell culture assays,did not cause any detectable toxicity
same,Glutamate-induced cytotoxicity (LDH assay),[5]; glutamate for 2 hr (FIG. 7C),significantly reduced
same,MAP2-positive neurons left compared to the control,[5]; pretreatment at 2 μM,40.4±6.4%
same,MAP2-positive neurons left compared to the control,[5]; pretreatment at 3 μM,60.9±7.3%
same,"Protective effects after pretreatment with dihydrokainic acid (DHK), an EAAT2 blocker",[5]; with DHK pretreatment,partially abolished

# Source: patent US9447075B2, “Pyridazine derivatives as EAAT2 activators” (The Brigham and Women's Hospital, Inc., priority 2011, dated 2016)
